Activity calls are given as the source filed them. No rule for the calls is given here.
Target: Trace amine-associated receptor 1 (Homo sapiens) (UniProt Q96RJ0)
Test: TAAR1 desensitization by agonist compounds, SAR follow-up, counter-screen for TAAR1 agonist project, cell-based, fluorescence, human, MedChem round 1 (AID 743490)
Settings: hTAAR1 cells, desensitization of agonist response

Sequence of Trace amine-associated receptor 1 (Homo sapiens) (Q96RJ0 whole entry, looked up): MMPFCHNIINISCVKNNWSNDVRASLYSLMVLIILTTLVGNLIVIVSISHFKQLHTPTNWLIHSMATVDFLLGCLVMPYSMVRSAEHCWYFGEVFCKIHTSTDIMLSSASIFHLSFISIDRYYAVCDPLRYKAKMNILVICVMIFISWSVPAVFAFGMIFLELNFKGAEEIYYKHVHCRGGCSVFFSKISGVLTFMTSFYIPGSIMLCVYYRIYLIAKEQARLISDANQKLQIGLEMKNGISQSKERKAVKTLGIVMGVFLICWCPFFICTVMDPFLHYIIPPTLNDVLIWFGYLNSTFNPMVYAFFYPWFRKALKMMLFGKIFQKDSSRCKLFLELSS

Row | Compound | IC50
1 | Cc1ccc(C(=O)CCN2CCC(c3ccccc3)C2)cc1 (stereo unspecified) | > 29.9 µM (inactive)
2 | O=C(CCN1C[C@@H](C(=O)O)[C@H](c2ccccc2)C1)NC1CCCC1 | > 29.9 µM (inactive)
3 | CC(CN1CCC(c2ccccc2)C1)C(=O)c1ccc2c(c1)OCCO2 (stereo unspecified) | > 29.9 µM (inactive)
4 | O=C(CCN1C[C@@H](C(=O)O)[C@H](c2cccc(F)c2)C1)NC1CC1 | > 29.9 µM (inactive)
5 | CC(CN1CCCC1Cc1ccccc1)C(=O)c1ccc2c(c1)OCCO2 (stereo unspecified) | > 29.9 µM (inactive)
6 | O=C(CCN1CCC(O)(c2ccccc2)C1)c1ccc2c(c1)OCCO2 (stereo unspecified) | > 29.9 µM (inactive)
7 | O=C(CCN1CCC(O)(c2ccc(F)cc2)C1)c1ccc2c(c1)OCCO2 (stereo unspecified) | > 29.9 µM (inactive)
8 | O=C(CCN1CCC(c2ccccc2)C1)c1ccccc1 (stereo unspecified) | inactive
9 | O=C(CCN1C[C@@H](C(=O)O)[C@H](c2ccccc2)C1)NCc1cccs1 | > 29.9 µM (inactive)
10 | NC(=O)CCN1C[C@H](c2ccccc2)[C@@H]2[C@H]1C1CCN2CC1 | > 29.9 µM (inactive)
11 | CC1CN(CCC(=O)c2ccc3c(c2)OCCO3)CC1c1ccccc1 (stereo unspecified) | 4.4 µM

From PubChem BioAssay AID743490 (The Scripps Research Institute Molecular Screening Center, 2014)
